Assay results published in ChEMBL document CHEMBL5338752, “Carbamate JNK3 Inhibitors Show Promise as Effective Treatments for Alzheimer's Disease: In Vivo Studies on Mouse Models” (J Med Chem, 2023).
Active and inactive are the calls of the source. No cut-off for these calls is given here.

Legend:
[1] = Tmax in sixteen hrs fasted Sprague-Dawley rat at 3 mg/kg, po measured upto 24 hrs by LC-MS/MS analysis; assay type: ADME, organism-based; conditions: in vivo
[2] = target: T1, Mitogen-activated protein kinase 10 (Homo sapiens, UniProt P53779); experiment: Inhibition of JNK3 (unknown origin) using ATF2 as substrate incubated for 40 mins in presence of [gamma33P]ATP by scintillation counting analysis
T1 sequence (P53779 whole entry): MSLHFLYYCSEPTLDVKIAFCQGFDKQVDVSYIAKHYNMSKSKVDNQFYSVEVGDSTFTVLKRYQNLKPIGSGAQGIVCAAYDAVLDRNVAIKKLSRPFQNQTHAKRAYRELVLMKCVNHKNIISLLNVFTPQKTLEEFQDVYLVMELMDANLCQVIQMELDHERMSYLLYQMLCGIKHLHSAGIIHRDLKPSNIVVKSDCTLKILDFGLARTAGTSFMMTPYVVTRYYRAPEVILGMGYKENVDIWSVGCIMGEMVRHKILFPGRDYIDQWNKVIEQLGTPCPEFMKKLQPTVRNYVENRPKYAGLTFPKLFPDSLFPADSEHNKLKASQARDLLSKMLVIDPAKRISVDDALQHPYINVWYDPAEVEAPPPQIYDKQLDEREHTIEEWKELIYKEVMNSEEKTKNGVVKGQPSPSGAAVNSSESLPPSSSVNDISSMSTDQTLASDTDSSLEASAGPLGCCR

Mus musculus [3] = experiment: Anti-alzheimer activity against APP/PS1 dE9 double transgenic mouse model assessed as time spent in platform quadrant at 30 mg/kg, po administered daily for 2 months and measured after 74 days by Morris water maze test (reference value: 10.50+/-4.15 sec); assay type: functional; conditions: time 74 day
Mus musculus [4] = experiment: Anti-alzheimer activity against triple transgenic mouse alzheimer disease model assessed as time spent in target zone at 30 mg/kg, po administered daily for 2.2 months and measured after 137 days by Morris water maze test (reference value: 4.48+/-1.63 sec); assay type: functional; conditions: time 137 day
[5] = target: Mitogen-activated protein kinase 10 (Rattus norvegicus) (UniProt P49187); experiment: Inhibition of anisomycin induced JNK3 activation in rat cortex neuron cells assessed as reduction in Jun phosphorylation levels at 10 to 20 uM preincubated for 90 mins followed by anisomycin addition and measured after 40 mins by Western blot analysis; assay type: cell-based; conditions: dose 10-20 µM, time 130.0 min
Sequence of Mitogen-activated protein kinase 10 (Rattus norvegicus) (P49187 whole entry): as the sequence (P53779 whole entry) above, with Q27H, Y32S, I33V, A34V counted along it

Neuron [6] = experiment: Neuroprotective activity against rat neuron cells assessed as inhibition of Abeta(1-42)-induced cytotoxicity by measuring increase in cell viability at 20 uM incubated for 24 hrs by MTT assay relative to control; assay type: functional
Mus musculus [7] = experiment: Anti-alzheimer activity against triple transgenic mouse alzheimer disease model assessed as path length at 30 mg/kg, po measured upto 5 days by Morris water maze test (reference value: 608.85+/-39.27 cm); assay type: functional; conditions: time <= 5 day
[8] = Apparent permeability of the compound across apical side to basolateral side in human Caco-2 cells; assay type: ADME, cell-based
[9] = target: Mitogen-activated protein kinase 10 (Rattus norvegicus) (UniProt P49187); experiment: Inhibition of A-beta (1 to 42) induced JNK3 activation in rat cortex neuron cells assessed as reduction in c-Jun phosphorylation levels at 10 to 20 uM incubated for 24 hrs in presence of A-beta (1 to 42) by Western blot analysis; assay type: cell-based; conditions: dose 10-20 µM
Mus musculus [10] = experiment: Anti-alzheimer activity against triple transgenic mouse alzheimer disease model assessed as time spent in platform quadrant at 60 mg/kg, po administered daily for 2.2 months and measured after 137 days by Morris water maze test (reference value: 12.26+/-2.34 sec); assay type: functional; conditions: time 137 day
Mus musculus [11] = experiment: Anti-alzheimer activity against triple transgenic mouse alzheimer disease model assessed as spontaneous alteration at 60 mg/kg, po administered daily for 2.2 months and measured after 119 days by Y-maze test (reference value: 45.55+/-2.30%); assay type: functional; conditions: time 119 day
Mus musculus [12] = experiment: Anti-alzheimer activity against triple transgenic mouse alzheimer disease model assessed as reduction in tau phosphorylation level at S202 residue in hippocampal tissue at 30 to 60 mg/kg by Western blot analysis; assay type: functional, organism-based; conditions: dose 30-60 mg/kg
Mus musculus [13] = experiment: Anti-alzheimer activity against APP/PS1 dE9 double transgenic mouse model assessed as spontaneous alteration at 60 mg/kg, po administered daily for 2 months and measured after 57 days by Y-maze test (reference value: 40.75+/-2.25%); assay type: functional; conditions: time 57 day
[14] = Apparent permeability of the compound across basolateral side to apical side in human Caco-2 cells; assay type: ADME, cell-based
Mus musculus [15] = experiment: Anti-alzheimer activity against APP/PS1 dE9 double transgenic mouse model assessed as escape latency time at 30 mg/kg, po administered daily for 2 months and measured after 60 days by Passive avoidance test (reference value: 28.6+/-4.3 sec); assay type: functional; conditions: time 60 day
Mus musculus [16] = experiment: Anti-alzheimer activity against APP/PS1 dE9 double transgenic mouse model assessed as spontaneous alteration at 30 mg/kg, po administered daily for 2 months and measured after 57 days by Y-maze test (reference value: 40.75+/-2.25%); assay type: functional; conditions: time 57 day
Mus musculus [17] = experiment: Anti-alzheimer activity against triple transgenic mouse alzheimer disease model assessed as reduction in tau phosphorylation level at T181 residue in hippocampal tissue at 30 to 60 mg/kg by Western blot analysis; assay type: functional, organism-based; conditions: dose 30-60 mg/kg
[18] = AUClast in sixteen hrs fasted Sprague-Dawley rat at 3 mg/kg, po measured upto 24 hrs by LC-MS/MS analysis; assay type: ADME, organism-based; design: dose 3 mg/kg, time < 24 hrs, route po; conditions: in vivo
Neuron [19] = experiment: Inhibition of apoptosis in rat cortex neuron cells assessed as prevention of A-beta (1 to 42) induced cleaved PARP formation at 10 to 20 uM measured after 24 hrs by Western blot analysis; assay type: functional, cell-based; conditions: dose 10-20 µM
Mus musculus [20] = experiment: Anti-alzheimer activity against APP/PS1 dE9 double transgenic mouse model assessed as time spent in target zone at 60 mg/kg, po administered daily for 2 months and measured after 74 days by Morris water maze test (reference value: 6.76+/-3.20 sec); assay type: functional; conditions: time 74 day
[21] = target: T1, Mitogen-activated protein kinase 10; experiment: Inhibition of JNK3 (unknown origin) at 1.0 uM preincubated for 20 mins followed by 33P-ATP addition and measured after 2 hrs by P81 filter binding method relative to control; conditions: time 140.0 min
[22] = Half life in sixteen hrs fasted Sprague-Dawley rat at 3 mg/kg, po measured upto 24 hrs by LC-MS/MS analysis; assay type: ADME, organism-based; conditions: in vivo
[23] = target: Mitogen-activated protein kinase 14 (Homo sapiens) (UniProt Q16539); experiment: Inhibition of p38alpha (unknown origin) at 1.0 uM preincubated for 20 mins followed by 33P-ATP addition and measured after 2 hrs by P81 filter binding method relative to control; conditions: time 140.0 min
Sequence of Mitogen-activated protein kinase 14 (Homo sapiens) (Q16539 whole entry): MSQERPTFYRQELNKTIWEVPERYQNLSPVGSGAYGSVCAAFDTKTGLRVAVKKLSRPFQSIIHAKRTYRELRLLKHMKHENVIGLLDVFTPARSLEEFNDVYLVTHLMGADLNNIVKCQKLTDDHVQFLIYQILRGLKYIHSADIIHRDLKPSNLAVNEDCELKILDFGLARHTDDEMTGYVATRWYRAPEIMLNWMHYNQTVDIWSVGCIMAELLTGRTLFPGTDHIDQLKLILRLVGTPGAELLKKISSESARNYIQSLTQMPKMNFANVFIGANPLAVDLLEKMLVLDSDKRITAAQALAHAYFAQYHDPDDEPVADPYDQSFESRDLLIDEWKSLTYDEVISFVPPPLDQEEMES

Mus musculus [24] = experiment: Anti-alzheimer activity against triple transgenic mouse alzheimer disease model assessed as latency time at 60 mg/kg, po administered daily for 2.2 months and measured after 122 to 123 days by passive avoidance test (reference value: 31.3+/-6.9 sec); assay type: functional; conditions: time 122-123 day
Mus musculus [25] = experiment: Anti-alzheimer activity against APP/PS1 dE9 double transgenic mouse model assessed as time spent in target zone at 30 mg/kg, po administered daily for 2 months and measured after 74 days by Morris water maze test (reference value: 6.76+/-3.20 sec); assay type: functional; conditions: time 74 day
Neuron [26] = experiment: Inhibition of anisomycin induced JNK activation in rat cortex neuron cells assessed as fold reduction in Jun phosphorylation levels at 10 to 20 uM preincubated for 90 mins followed by anisomycin addition and measured after 40 mins by Western blot analysis; assay type: cell-based; conditions: dose 10-20 µM, time 130.0 min
[27] = target: Mitogen-activated protein kinase 9 (Homo sapiens, UniProt P45984); experiment: Inhibition of JNK2 (unknown origin) using ATF2 as substrate incubated for 40 mins in presence of [gamma33P]ATP by scintillation counting analysis
Sequence of Mitogen-activated protein kinase 9 (P45984 whole entry): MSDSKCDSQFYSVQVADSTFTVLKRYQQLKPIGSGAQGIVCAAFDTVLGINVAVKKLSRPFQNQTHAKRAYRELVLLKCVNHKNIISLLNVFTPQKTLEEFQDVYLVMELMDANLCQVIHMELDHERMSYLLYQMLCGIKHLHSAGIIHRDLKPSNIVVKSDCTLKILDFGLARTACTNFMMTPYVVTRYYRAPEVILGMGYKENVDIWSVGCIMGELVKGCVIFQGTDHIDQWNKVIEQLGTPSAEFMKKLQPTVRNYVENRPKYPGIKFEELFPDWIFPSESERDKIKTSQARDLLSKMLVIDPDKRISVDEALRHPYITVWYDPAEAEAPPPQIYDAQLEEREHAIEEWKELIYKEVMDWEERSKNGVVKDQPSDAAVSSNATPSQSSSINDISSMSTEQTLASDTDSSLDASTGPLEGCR

Neuron [28] = experiment: Neuroprotective activity against rat neuron cells assessed as inhibition of Abeta(1-42)-induced cytotoxicity by measuring increase in cell viability at 20 uM incubated for 48 hrs by MTT assay relative to control; assay type: functional
Mus musculus [29] = experiment: Anti-alzheimer activity against triple transgenic mouse alzheimer disease model assessed as path length at 60 mg/kg, po measured upto 5 days by Morris water maze test (reference value: 608.85+/-39.27 cm); assay type: functional; conditions: time <= 5 day
Mus musculus [30] = experiment: Anti-alzheimer activity against APP/PS1 dE9 double transgenic mouse model assessed as time spent in platform quadrant at 60 mg/kg, po administered daily for 2 months and measured after 74 days by Morris water maze test (reference value: 10.50+/-4.15 sec); assay type: functional; conditions: time 74 day

## CNC(=O)Oc1cc(F)c2nc(-c3ccc4ccccc4c3)n(-c3ccnc(N[C@H]4CCCN(C(=O)C5CC5)C4)n3)c2c1
[1]
  Tmax: 23.4 min
[2]
  IC50: 0.021 µM
Mus musculus [3]
  Time: 16.44 s
Mus musculus [4]
  Time: 17.1 s
[5]
  inhibition: Active
Neuron [6]
  Activity: 47.5%
Mus musculus [7]
  Activity: 402.59 cm
[8]
  Papp A→B: 1.7 ×10⁻⁶ cm/s
[9]
  inhibition: Active
Mus musculus [10]
  Time: 22.59 s
Mus musculus [11]
  Activity: 54.62%
Mus musculus [12]
  Activity: Active
Mus musculus [13]
  Activity: 54.23%
[14]
  Papp B→A: 25.2 ×10⁻⁶ cm/s
Mus musculus [15]
  Time: 44.2 s
Mus musculus [16]
  Activity: 50.6%
Mus musculus [17]
  Activity: Active
[18]
  AUC(0-t) at 24 h: 727 ng·h/mL
Neuron [19]
  inhibition: Active
Mus musculus [20]
  Time: 16.27 s
[21]
  inhibition: 100%
[22]
  half-life: 58.2 min
[23]
  inhibition: 20%
Mus musculus [24]
  Time: 64.4 s
Mus musculus [25]
  Time: 11.4 s
Neuron [26]
  fold change (FC): 2
[27]
  IC50: 2.2 µM
Neuron [28]
  Activity: 28.4%
Mus musculus [29]
  Activity: 372.7 cm
Mus musculus [30]
  Time: 21.78 s
